Test results from article PMC5395182, “Soaking suggests “alternative facts”: Only co-crystallization discloses major ligand-induced interface rearrangements of a homodimeric tRNA-binding protein indicating a novel mode-of-inhibition” (PLoS ONE, 2017).
“Also recorded” adds a separate entry of the source.

Key:
[1] = biological target: T1, Z. mobilis TGT (Zymomonas mobilis subsp. mobilis, UniProt P28720); assay: Isothermal titration calorimetry (ITC) of ligand binding to TGT; details: for thermodynamic binding signature in words / Kd / ΔG^0: ITC; for Kd: 298 K, direct titration; for ΔG^0: calculated at 298.15 K; for ΔH^0bind: ionization corrected (intercept of ΔH^0obs vs buffer ΔH^0ion); for -TΔΔS^0 / ΔΔH^0: relative to 1 used as reference; for protons picked up during binding: slope of linear regression, average over inhibitors 2 and 5
T1 construct: Strep-tag II (N, cleaved yes); made in house; host or cells: Escherichia coli
T1 sequence (P28720 whole entry): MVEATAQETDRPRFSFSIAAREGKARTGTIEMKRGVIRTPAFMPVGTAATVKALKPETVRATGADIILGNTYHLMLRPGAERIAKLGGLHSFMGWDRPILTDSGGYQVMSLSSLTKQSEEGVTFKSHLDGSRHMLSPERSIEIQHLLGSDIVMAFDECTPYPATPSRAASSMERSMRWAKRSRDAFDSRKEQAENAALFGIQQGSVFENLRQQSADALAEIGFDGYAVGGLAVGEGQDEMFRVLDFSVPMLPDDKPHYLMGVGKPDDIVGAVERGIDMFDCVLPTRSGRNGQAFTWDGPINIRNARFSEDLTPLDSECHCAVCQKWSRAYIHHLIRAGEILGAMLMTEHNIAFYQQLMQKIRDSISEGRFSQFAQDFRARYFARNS
Source text: To further analyze the binding properties of ligands studied in this contribution we decided to establish the thermodynamic analysis of a representative subset via isothermal titration calorimetry (ITC) (data for 1 had been determined previously). ITC enables the simultaneous determination of affinity (Kd) and stoichiometry (n) as well as enthalpic contribution (ΔH^0). The entropic (-TΔS^0) term to Gibbs free energy (ΔG^0 = ΔH^0—TΔS^0) results from ΔG^0–ΔH^0 difference. Due to insufficient availability of some compounds in high purity, quantity and sufficient solubility to perform proper ITC measurements, we decided to focus our investigation on 1, 2, 3 and 5.
We recently discovered that the binding of lin-benzoguanine derivatives is associated with protonation effects that are superimposed to the heat signal of ligand binding to TGT. […] Such protonation effects become transparent when ITC measurements are performed from at least three different buffers (see Materials and methods). The overlaid […] of the protonation step was determined as the intersection of the linear regression line obtained by plotting the observed enthalpies of the studied ligands (ΔH^0obs) against the heat of ionization of the corresponding buffers (ΔH^0ion) (Fig 9a). […] The examined inhibitors 2 and 5, on average receive 0.61 ± 0.04 protons per mole of the formed complex, which is in reasonable agreement with the results obtained for 1 (0.89) and similar compounds [29].
ITC measurements were performed using a Microcal ITC200 calorimeter system from GE Healthcare. Z. mobilis TGT was dissolved in the ITC buffer (50 mM HEPES/Tricin/TRIS pH 7.8, 200 mM NaCl, 0.037% (v/v) Tween 20 and 3% (v/v) DMSO) to a final concentration of 10–20 μM.
The inhibitors were first dissolved in 100% (v/v) DMSO and diluted with the buffer solution to a final DMSO concentration of 3% (v/v). The concentration of the inhibitor in the syringe was adjusted to 200–300 μM with the ITC buffer. The reference cell contained filtered demineralized water. […] The initial delay before the injections were started was adjusted to 180–300 s and the spacing between each injection to 150–180 s. The first injection contained 0.3–0.6 μL of the inhibitor solution followed by injections of 1.0–2.4 μL until a saturation occurred. A stirring speed of 750 rpm was chosen. Raw data were collected as released heat per time. The direct titrations were done in three different buffers (HEPES/Tricin/TRIS) to correct for the overlaid protonation effect as previously described.The measured ΔH^0obs were plotted on the ordinate and the ionization enthalpy of the corresponding buffer ΔH^0ion on the abscissa (Fig 9). The positive slope of the linear regression line indicates how many protons per mole of formed complex are entrapped.
For estimation of binding affinity (Kd), Z. mobilis TGT was incubated with 90–100% saturation of inhibitor 3. Protein saturation was calculated according Rühmann et al. (2015). Inhibitor 1 as strong titrant was used to displace inhibitor 3.
For analysis of the raw data, peak integration, model fitting and evaluation, the programs NITPIC [57] and SEDPHAT [58] were used. The initial injection peak was removed and the areas of the remaining peaks were integrated. The correction of the heats of dilution was conducted by subtraction of the final constant injection peak area integrals. The A+B ↔ AB hetero-association model (1:1 stoichiometry) was applied, whereby ΔH^0 and Kd were directly obtained. The ΔG^0 and -TΔS^0 values were calculated using a temperature of 298.15 K. For illustration of the integrated raw data and the ITC isotherms, the program GUSSI was used. Obtained thermodynamic data per buffer are reported as mean values averaged over at least three measurements.

[2] = biological target: T1, Z. mobilis TGT; details: cited from earlier work; for Ki / affinity as described in words: radio-labeled assay, determined previously
[3] = tested on: T2, TGT homodimer; assay: Native ESI-MS of TGT:ligand 1:10 mixtures (dimer destabilization); design: species or system Zymomonas mobilis; details: for Relative proportion of TGT monomers: 2.5 µM TGT and 25 µM inhibitor (1:10), 1 M NH4Ac pH 7.5, without ligand 3.3 ± 0.7 %; for effect on TGT dimer stability / monomer proportion, in words: compared to measurements in the absence of any ligand, TGT:ligand 1:10
T2 construct: Strep-tag II (N, cleaved yes); made in house; host or cells: Escherichia coli
Procedure: In order to gain insights into the dimer disturbing potential seen in the crystal structures with the different ligands and to collect evidence for such a behavior also present in solution, native ESI-MS was performed. This technique enables to monitor the oligomerization state of TGT at equilibrium under non-denaturing conditions, in the absence or presence of saturating ligand concentrations. […] To ensure reliability, these comparative experiments were thus carried out adhering to strictly similar conditions (see Materials and methods).
Relative proportions of TGT-monomer signals extracted from individual 1:10 TGT:ligand mixtures (TGT monomer 2.5 μM) were quantified (S7 Fig, S1 Table) and normalized with respect to this value in the absence of any inhibitor.
Nano-ESI-MS analyses were performed as already described in the literature. Briefly, WT-TGT samples were exchanged twice against a 1 M ammonium acetate pH 7.5 buffer using microcentrifuge gel-filtration columns (Zeba 0.5 mL, Thermo Scientific). Next, protein concentration was determined spectrophotometrically at 280 nm (Nano-Drop 2000 spectrophotometer, Thermo Scientific).
Native MS experiments were carried out on a hybrid Q-TOF mass spectrometer (Synapt G2 HDMS, Waters) equipped with an automated chip-based nanoESI source (Triversa Nanomate, Advion Biosciences) operating in the positive ion mode. External calibrations were generated from the multiple charged ions produced by a 2 μM horse heart myoglobin solution diluted in a 1:1 (v/v) water: acetonitrile mixture acidified with 1% (v/v) formic acid (denaturing MS) and singly charged cesium iodide clusters diluted to 2 g∙L^-1 in a 1:1 (v/v) water: isopropanol solution (native MS).
Titration experiments in native conditions (1 M NH4Ac pH 7.5) were next triggered by mixing 2.5 μM TGT monomers with 25 μM of each ligand separately (ratio 1:10). The final DMSO concentration of each mixture never exceeded 0.25% (v/v). Non-covalent TGT dimers and TGT-ligand complexes were preserved in the gas phase according fine-tuned instrumental parameters, improving ion desolvation and transmission while maintaining intact structures (Vc = 80V, Pi = 6 mbar).
Relative quantification of TGT monomers was performed from charge states peak intensities of both monomeric (10 to 14+) and dimeric complexes (15 to 20+), using MassLynx 4.1 (Waters). TGT dimer disruption was determined for each ligand through their destabilization factor (Fig 8) which corresponds to their associated ratio of TGT monomers normalized from the apo-condition (S7 Fig; S1 Table). Standard deviations are calculated here from analytical triplicates. For the sake of reliability and comparability, all these experiments were performed within the same day, from identical experimental and instrumental conditions using the same buffer exchanged TGT batch (frozen and thawed only once).

[4] = Ligand dilution in native MS buffer (precipitation); type: physicochemical; details: 1 M NH4Ac pH 7.5
[5] = HEPES buffer, Gibbs-Helmholtz equation
[6] = TRIS buffer, Gibbs-Helmholtz equation
[7] = Tricin buffer, Gibbs-Helmholtz equation

CNc1nc2c(CC[C@H]3O[C@@H](OC)[C@H](O)[C@@H]3O)c3nc(N)[nH]c(=O)c3cc2[nH]1 [Inhibitor 2]
ΔH^0obs ([1]; HEPES buffer): -9.61 ± 0.526 kcal/mol
-TΔS^0 [1, 5]: 0.574 ± 0.502 kcal/mol
thermodynamic binding signature in words [1]: more enthalpically favored binder
Kd [1]: 275 ± 49 nM
ΔG^0 [1]: -9.06 ± 0.096 kcal/mol
ΔH^0obs ([1]; TRIS buffer): -5.62 ± 0.478 kcal/mol
-TΔS^0 [1, 6]: -3.37 ± 0.382 kcal/mol
ΔH^0obs ([1]; Tricin buffer): -8.51 ± 0.765 kcal/mol
-TΔS^0 [1, 7]: -0.645 ± 0.645 kcal/mol
-TΔS^0 ([1]; ionization corrected): 3.8 kcal/mol
ΔH^0bind [1]: -12.9 kcal/mol
-TΔΔS^0 ([1]; ionization corrected): -8.63 kcal/mol
ΔΔH^0 ([1]; ionization corrected): 9.49 kcal/mol
protons picked up during binding [1]: 0.61 ± 0.04 protons per mole of the formed complex
Ki [2]: 217 ± 81 nM
Ki / affinity as described in words [2]: three-digit nanomolar
Relative proportion of TGT monomers [3]: 5.3%
effect on TGT dimer stability / monomer proportion, in words [3]: No effect on dimer stability

CNc1nc2c(CC[C@H]3O[C@@H](OC)[C@H](O)[C@@H]3OC)c3nc(N)[nH]c(=O)c3cc2[nH]1 [Inhibitor 3]
heat signal in ITC, direct titration of ligand to TGT ([1]; HEPES, Tricin, TRIS buffers, also up to 308 K in HEPES): no heat effects at all could be detected; also recorded: no detectable heat signal
thermodynamic binding signature in words [1]: overwhelmingly entropy-driven; also recorded: pure entropically-driven binding signature
heat signal in ITC displacement titration ([1]; TGT 100% saturated with 3, 1 as titrant, HEPES): again no heat signal was recorded
binding constant from ITC displacement experiments, in words ([1]; TGT saturated about 90% with 3, 1 as titrant): falls close to that of 1
Ki / affinity as described in words [2]: submicromolar; also recorded: three-digit nanomolar
Relative proportion of TGT monomers [3]: 9.6%
effect on TGT dimer stability / monomer proportion, in words [3]: slightly increased proportion of TGT monomer

CNc1nc2c(CCNCC3CCCC3)c3nc(N)[nH]c(=O)c3cc2[nH]1 [Inhibitor 5]
ΔH^0obs ([1]; HEPES buffer): -12 ± 0.813 kcal/mol
-TΔS^0 [1, 5]: 1.48 ± 0.884 kcal/mol
Kd [1]: 32 ± 9 nM
ΔG^0 [1]: -10.3 ± 0.19 kcal/mol
ΔH^0obs ([1]; TRIS buffer): -8.2 ± 0.526 kcal/mol
-TΔS^0 [1, 6]: -1.98 ± 0.335 kcal/mol
ΔH^0obs ([1]; Tricin buffer): -10.3 ± 0.98 kcal/mol
-TΔS^0 [1, 7]: 0.12 ± 0.789 kcal/mol
-TΔS^0 ([1]; ionization corrected): 4.49 kcal/mol
ΔH^0bind [1]: -14.8 kcal/mol
-TΔΔS^0 ([1]; ionization corrected): -7.93 kcal/mol
ΔΔH^0 ([1]; ionization corrected): 7.58 kcal/mol
protons picked up during binding [1]: 0.61 ± 0.04 protons per mole of the formed complex
Ki [2]: 2 ± 1 nM
Ki / affinity as described in words [2]: single-digit nanomolar
Relative proportion of TGT monomers [3]: 4.2%
effect on TGT dimer stability / monomer proportion, in words [3]: No effect on dimer stability

CNc1nc2c(CCNCC3CCCCC3)c3nc(N)[nH]c(=O)c3cc2[nH]1 [Inhibitor 6]
precipitation upon ligand dilution in buffer [4]: partial precipitation; also recorded: apparent precipitation
Ki / affinity as described in words [2]: single-digit nanomolar
Relative proportion of TGT monomers [3]: 2.5%
effect on TGT dimer stability / monomer proportion, in words [3]: did not exert any influence on dimer stability

COc1ccc(CCc2c3nc[nH]c3cc3c(=O)[nH]c(N)nc23)cc1 [Inhibitor 7]
Relative proportion of TGT monomers [3]: 9.4%
effect on TGT dimer stability / monomer proportion, in words [3]: slightly increased proportion of TGT monomer

Cc1ccc(CCc2c3nc[nH]c3cc3c(=O)[nH]c(N)nc23)cc1 [Inhibitor 8]
Relative proportion of TGT monomers [3]: 7.1%
effect on TGT dimer stability / monomer proportion, in words [3]: slightly increased proportion of TGT monomer

Nc1nc2c(CCc3ccccc3)c3nc[nH]c3cc2c(=O)[nH]1 [Inhibitor 9]
Relative proportion of TGT monomers [3]: 12.6%
effect on TGT dimer stability / monomer proportion, in words [3]: slightly increased proportion of TGT monomer; also recorded: most significant increase of normalized monomer proportion

Nc1nc2cc3nc[nH]c3cc2c(=O)[nH]1 [lin-benzoguanine, reference compound]
Ki [2]: 4100 ± 1000 nM
